In patent US20240425938A1, “COMPOSITIONS AND METHODS FOR CHAR[…] FREQUENCY MUTATIONS” (The Broad Institute, Inc., priority 2022, published 2024):

Tested on: P. aeruginosa isolates
Type: cell-based, Pseudomonas aeruginosa

Row | SMILES | Antibiotic resistance profile of isolates
1 | CC(C)(O/N=C(\C(=O)N[C@@H]1C(=O)N2C(C(=O)[O-])=C(C[n+]3ccccc3)CS[C@H]12)c1csc(N)n1)C(=O)O [ceftazidime] | resistance
2 | C[C@@H](O)[C@H]1C(=O)N2C(C(=O)O)=C(S[C@@H]3CN[C@H](C(=O)N(C)C)C3)[C@H](C)[C@H]12 [meropenem] | resistance
